Results published in ChEMBL document CHEMBL6153099, “Fatuamide A, a Hybrid PKS/NRPS Metallophore from a Leptolyngbya sp. Marine Cyanobacterium Collected in American Samoa” (J Nat Prod, 2025).
Active and inactive are the calls of the source. The rule behind the calls is not given here.

How the values were obtained:
NCI-H460 = assay: Cytotoxicity against human NCI-H460 cells at 2 to 60000 nM incubated for 48 hrs by MTT assay; type: functional, cell-based; conditions: dose 2-60000 nM
RAW264.7 = assay: Antiinflammatory activity in LPS-induced mouse RAW264.7 cells assessed as reduction in NO production at 10 to 30 microg/ml preincubated for 24 hrs by Griess reagent based assay; type: functional, cell-based; conditions: dose 10-30 µg/ml

Question: For `C[C@H](C[C@@H](C)CCC(=O)N[C@@H](Cc1ccccc1)[C@H](O)C[C@H](O)CC(=O)N[C@@H](Cc1ccccc1)[C@H](O)CC(=O)NCC(=O)O)C[C@@H]1CSC(c2ccccc2O)=N1`, which Activity (NCI-H460) is on record?
Answer: Active

Question: What about the Activity (RAW264.7) of the same compound?
Answer: inactive
